Reference: US9156831B2, “Chemical compounds” (ASTRAZENECA AB, priority 2013, dated 2015)

Key:
Test in all cases: Cell proliferation assay (MTS)
[1] = test system: H1975; format: cell-based, human
Protocol: (§1) The sensitivity of a panel of human cancer cell lines to the effects of compounds was determined in a standard proliferation assay. Cell lines were sourced through the AstraZeneca Cell Bank.
(§2) Cells were plated in 96 well plates at densities of 1000-6000 cells per well in RPMI media containing 10% FBS. After incubation at 37° C. for 16 hours, various concentrations of compound were added to the assay plates. After incubation for an additional 72 h, the viable cells were determined by the addition of MTS reagent (Promega #3582) to each well for 2 h. MTS is a tetrazolium salt that is bioreduced by metabolically active cells in the presence of an electron coupling reagent to formazan. The formazan product was then quantitated by absorbance at 490 nm, as an indicator of the relative number of live cells. In order to determine the GI50 (concentration at which growth of cells was inhibited by 50%) the relative number of cells present at the time of drug addition was determined by comparison with the MTS readout before the drug was added, and this value was subtracted from the 72 hr value of untreated cells as a measure of cell growth during the assay.

[2] = test system: JIMT1; format: cell-based, human
Protocol: (§3) The sensitivity of a panel of human cancer cell lines to the effects of compounds was determined in a standard proliferation assay.
as §2

[3] = test system: H2170; format: cell-based, human
Protocol: as §1, §2

[4] = test system: PANC0203; format: cell-based, human
Protocol: as §3
(§4) Cells were plated in 96 well plates at densities of 1000-6000 cells per well in RPMI media containing 10% FBS. After incubation at 37° C. for 16 hours, various concentrations of compound were added to the assay plates. After incubation for an additional 72 h, the viable cells were determined by the addition of MTS reagent (Promega #3582) to each well for 2 h. […] The formazan product was then quantitated by absorbance at 490 nm, as an indicator of the relative number of live cells. In order to determine the GI50 (concentration at which growth of cells was inhibited by 50%) the relative number of cells present at the time of drug addition was determined by comparison with the MTS readout before the drug was added, and this value was subtracted from the 72 hr value of untreated cells as a measure of cell growth during the assay.

[5] = test system: SCABER; format: cell-based, human
Protocol: as §1, §2

[6] = test system: RKO; format: cell-based, human
Protocol: as §3, §2

[7] = test system: HUH1
Protocol: as §3, §4

[8] = test system: H2291; format: cell-based, human
Protocol: as §1, §2

[9] = test system: H460; format: cell-based, human
Protocol: as §3, §2

[10] = test system: DMS114; format: cell-based, human
Protocol: as §1, §2

[11] = test system: OVCAR3; format: cell-based, human
Protocol: as §3, §2

[12] = test system: REH; format: cell-based, human
Protocol: as §3, §4

[13] = test system: HARA; format: cell-based, human
Protocol: as §3, §2

[14] = test system: HEPG2; format: cell-based, human
Protocol: as §1, §2

[15] = test system: IM95M; format: cell-based, human
Protocol: as §1, §2

[16] = test system: JURKAT; format: cell-based, human
Protocol: as §3, §4

[17] = test system: SNU739; format: cell-based, human
Protocol: as §1, §2

[18] = test system: C99; format: cell-based, human
Protocol: as §3, §2

[19] = test system: BFTC905; format: cell-based, human
Protocol: as §3, §4

[20] = test system: IM9; format: cell-based, human
Protocol: as §1, §2

[21] = test system: CAPAN2; format: cell-based, human
Protocol: as §3, §4

[22] = test system: HCC1569; format: cell-based, human
Protocol: as §1, §4

[23] = test system: DU145; format: cell-based, human
Protocol: as §3, §4

[24] = test system: SW620; format: cell-based, human
Protocol: as §3, §4

[25] = test system: PAMC82; format: cell-based, human
Protocol: as §1, §4

[26] = test system: H322; format: cell-based, human
Protocol: as §3, §4

[27] = test system: CALU1; format: cell-based, human
Protocol: as §3, §2

[28] = test system: H596; format: cell-based, human
Protocol: as §3, §2

[29] = test system: CCK81; format: cell-based, human
Protocol: as §3, §2

[30] = test system: 977; format: cell-based, human
Protocol: as §3, §2

[31] = test system: HCT116; format: cell-based, human
Protocol: as §3, §2

[32] = test system: H1869; format: cell-based, human
Protocol: as §3, §2

[33] = test system: SNU216; format: cell-based, human
Protocol: as §3, §4

[34] = test system: SMMC7721; format: cell-based, human
Protocol: as §3, §4

[35] = test system: OE19; format: cell-based, human
Protocol: as §3, §4

[36] = test system: RERFLCSQ1; format: cell-based, human
Protocol: as §3, §2

[37] = test system: SNU368; format: cell-based, human
Protocol: as §3, §2

[38] = test system: SNU620; format: cell-based, human
Protocol: as §1, §2

[39] = test system: RT11284; format: cell-based, human
Protocol: as §3, §2

[40] = test system: SW48; format: cell-based, human
Protocol: as §1, §2

[41] = test system: MIAPACA2; format: cell-based, human
Protocol: as §1, §2

[42] = test system: GTL16; format: cell-based, human
Protocol: as §3, §4

[43] = Homo sapiens, Bladder, PIK3CA WT
[44] = Homo sapiens, Colon, PIK3CA MUT
[45] = Homo sapiens, Blood/lymph, PIK3CA WT
[46] = Homo sapiens, Stomach, PIK3CA WT

Compound: CCn1nc(C2CCN(C(=O)CCO)CC2)nc1-c1cnc(N)c(-c2nnc(C(C)(C)C)o2)n1 [Example 3, 1-(4-(5-(5-amino-6-(5-tert-butyl-1,3,4-oxadiazol-2-yl)pyrazin-2-yl)-1-ethyl-1H-1,2,4-triazol-3-yl)piperidin-1-yl)-3-hydroxypropan-1-one]
- Category [1]: Resistant (resistant (GI50>1.0 μM))
- GI50 ([1]; Homo sapiens, NCI-H1975, Lung, PIK3CA MUT): 2.26 µM
- Category [2]: Resistant (resistant (GI50>1.0 μM))
- GI50 ([2]; Homo sapiens, JIMT-1, Breast, PIK3CA MUT): 1.46 µM
- Category [3]: Resistant (resistant (GI50>1.0 μM))
- GI50 ([3]; Homo sapiens, NCI-H2170, Lung, PIK3CA WT): 7.64 µM
- Category [4]: Sensitive (sensitive (GI50<=1.0 μM))
- GI50 ([4]; Homo sapiens, Panc 02.03, Pancreas, PIK3CA WT): 0.963 µM
- Category [5]: Resistant (resistant (GI50>1.0 μM))
- GI50 [5, 43]: 12.4 µM
- Category [6]: Resistant (resistant (GI50>1.0 μM))
- GI50 [6, 44]: 4.32 µM
- Category ([7]; HUH1): Resistant (resistant (GI50>1.0 μM))
- GI50 ([7]; Homo sapiens, HuH-1): 22.3 µM
- Category [8]: Resistant (resistant (GI50>1.0 μM))
- GI50 ([8]; Homo sapiens, NCI-H2291, Lung, PIK3CA WT): 3.29 µM
- Category [9]: Resistant (resistant (GI50>1.0 μM))
- GI50 ([9]; Homo sapiens, NCI-H460, Lung, PIK3CA MUT): 30 µM
- Category [10]: Resistant (resistant (GI50>1.0 μM))
- GI50 ([10]; Homo sapiens, DMS-114, Lung, PIK3CA WT): 3.29 µM
- Category [11]: Resistant (resistant (GI50>1.0 μM))
- GI50 ([11]; Homo sapiens, OVCAR-3, Ovary, PIK3CA WT): 1.18 µM
- Category [12]: Resistant (resistant (GI50>1.0 μM))
- GI50 [12, 45]: 1.05 µM
- Category [13]: Resistant (resistant (GI50>1.0 μM))
- GI50 ([13]; Homo sapiens, Lung, PIK3CA WT): 1.91 µM
- Category [14]: Resistant (resistant (GI50>1.0 μM))
- GI50 ([14]; Homo sapiens, Liver, PIK3CA WT): 30 µM
- Category [15]: Sensitive (sensitive (GI50<=1.0 μM))
- GI50 ([15]; Homo sapiens, Stomach, PIK3CA MUT): 0.436 µM
- Category [16]: Resistant (resistant (GI50>1.0 μM))
- GI50 [16, 45]: 8.69 µM
- Category [17]: Resistant (resistant (GI50>1.0 μM))
- GI50 ([17]; Homo sapiens, SNU-739, Liver, PIK3CA WT): 25.9 µM
- Category [18]: Resistant (resistant (GI50>1.0 μM))
- GI50 ([18]; Homo sapiens, Colon, PIK3CA WT): 1.22 µM
- Category [19]: Sensitive (sensitive (GI50<=1.0 μM))
- GI50 ([19]; Homo sapiens, BFTC-905, Bladder, PIK3CA WT): 0.966 µM
- Category [20]: Resistant (resistant (GI50>1.0 μM))
- GI50 ([20]; Homo sapiens, IM-9, Blood/lymph, PIK3CA WT): 30 µM
- Category [21]: Resistant (resistant (GI50>1.0 μM))
- GI50 ([21]; Homo sapiens, Capan-2, Pancreas, PIK3CA WT): 13.4 µM
- Category [22]: Resistant (resistant (GI50>1.0 μM))
- GI50 ([22]; Homo sapiens, Breast, PIK3CA WT): 1.37 µM
- Category [23]: Resistant (resistant (GI50>1.0 μM))
- GI50 ([23]; Homo sapiens, DU-145, Prostate, PIK3CA WT): 8.24 µM
- Category [24]: Resistant (resistant (GI50>1.0 μM))
- GI50 ([24]; Homo sapiens, SW-620, Colon, PIK3CA WT): 13.4 µM
- Category [25]: Resistant (resistant (GI50>1.0 μM))
- GI50 [25, 46]: 1.37 µM
- Category [26]: Resistant (resistant (GI50>1.0 μM))
- GI50 ([26]; Homo sapiens, NCI-H322, Lung, PIK3CA WT): 8.23 µM
- Category [27]: Resistant (resistant (GI50>1.0 μM))
- GI50 ([27]; Homo sapiens, Calu-1, Lung, PIK3CA WT): 16 µM
- Category [28]: Sensitive (sensitive (GI50<=1.0 μM))
- GI50 ([28]; Homo sapiens, NCI-H596, Lung, PIK3CA MUT): 0.302 µM
- Category [29]: Sensitive (sensitive (GI50<=1.0 μM))
- GI50 [29, 44]: 0.803 µM
- Category [30]: Resistant (resistant (GI50>1.0 μM))
- GI50 [30, 43]: 4.42 µM
- Category [31]: Resistant (resistant (GI50>1.0 μM))
- GI50 ([31]; Homo sapiens, HCT-116, Colon, PIK3CA MUT): 30 µM
- Category [32]: Resistant (resistant (GI50>1.0 μM))
- GI50 ([32]; Homo sapiens, Lung, PIK3CA WT): 6.04 µM
- Category [33]: Resistant (resistant (GI50>1.0 μM))
- GI50 ([33]; Homo sapiens, SNU-216, Stomach, PIK3CA WT): 1.07 µM
- Category [34]: Resistant (resistant (GI50>1.0 μM))
- GI50 ([34]; Homo sapiens, SMMC-7721, Liver, PIK3CA WT): 30 µM
- Category [35]: Resistant (resistant (GI50>1.0 μM))
- GI50 ([35]; Homo sapiens, Esophagus, PIK3CA WT): 5.13 µM
- GI50 ([36]; Homo sapiens, RERF-LC-Sq1, Lung, PIK3CA MUT): 0.771 µM
- Category ([36]; RERFLCSQ1): Sensitive (sensitive (GI50<=1.0 μM))
- Category [37]: Resistant (resistant (GI50>1.0 μM))
- GI50 ([37]; Homo sapiens, Liver, PIK3CA WT): 1.6 µM
- Category [38]: Resistant (resistant (GI50>1.0 μM))
- GI50 [38, 46]: 3.14 µM
- Category [39]: Resistant (resistant (GI50>1.0 μM))
- GI50 ([39]; Homo sapiens, RT112/84, Bladder, PIK3CA WT): 1.17 µM
- Category [40]: Sensitive (sensitive (GI50<=1.0 μM))
- GI50 [40, 44]: 0.513 µM
- Category [41]: Resistant (resistant (GI50>1.0 μM))
- GI50 ([41]; Homo sapiens, MIA PaCa-2, Pancreas, PIK3CA WT): 24.2 µM
- Category [42]: Resistant (resistant (GI50>1.0 μM))
- GI50 ([42]; Homo sapiens, GTL 16, Stomach, PIK3CA WT): 17.4 µM
